Patent US10889569B2, “Condensed ring group azacyclobutyl triazole derivative, preparation method therefor and use thereof in medicine” (Jiangsu Hengrui Medicine Co., Ltd., priority 2016, dated 2021)

Key:
[1] = Brain permeability of rats (Kp-unbound); format: in vivo; settings: both sexes, rat, not told, po; SD rats, 10 mg/kg intragastrically, 0.5 h after administration; read-out: Kp-unbound (blood-brain permeability index)
Protocol: The activity of the compounds of the present invention on the brain permeability of rats was determined by the following experimental method:
Four SD rats (half male and half female) were maintained in a 12 hours light/12 hours dark cycle, in a constant temperature of 24±3° C. and a humidity of 50-60%, and free access to food and water. The compounds were administered intragastrically to the rats after fasting overnight. The administration dosage was 10 mg/kg. The administration group was sacrificed after blood collection at 0.5 h to 2 h after administration (blood volume: 0.5 ml). The blood sample was stored in heparinized tubes, and centrifuged for 10 minutes at 3500 rpm to separate the plasma, which was marked as plasma 1 and stored at […]. The animal was decapitated after sacrificing, and the brain tissue was collected. The residual blood in the brain tissue was sucked with a filter paper, which was marked as brain tissue 1, and stored at 0° C. ten minutes later. Another three animals were treated by the same method as that of administration group to obtain blank plasma and brain tissue 2.
The drug compounds were diluted to 50 mM with DMSO to obtain a stock solution I. An appropriate amount of stock solution I was diluted with methanol to obtain a diluted stock solution II (200 μM). 10 μl of stock solution II was moved to a 1.5 ml Eppendorf tube, and then added with 990 μl of blank plasma, and mixed well to obtain 2 μM of plasma sample 2 (concentration of DMSO≤0.2%), which was used for the determination of plasma protein binding rate at this concentration. […]
The equilibrium dialysis tube of RED Device Inserts was inserted into a 96-well plate. […] The chromatographic peak area ratios of the total drug (plasma chamber) and the free drug (buffer chamber) to the internal standard were determined directly by the LC/MS/MS method established above respectively, and the free percent (fu plasma %) was calculated.
Brain tissue protein binding equilibrium dialysis process: the blank brain tissue 2 was formulated into a blank brain homogenate with PBS (pH 7.4) according to a dilution factor of 11, and added with compound to formulate a 2 μM brain homogenate. Other procedures were the same with that of plasma protein binding, the chromatographic peak area ratios of the total drug (brain homo chamber) and the free drug (buffer chamber) to the internal standard were determined by the established LC/MS/MS method respectively, and the free percent (fu brain hom %) was calculated.
1) The drug concentrations in plasma 1 and brain tissue 1 of rats 0.5 h after administration were determined by the established LC/MS/MS method respectively, which were the total concentration (Ctotal, p and Ctotal, b); […]

[2] = Pharmacokinetics assay in rats after intragastrical administration; format: in vivo, SD rats; settings: Sprague-Dawley, rat, plasma, po, 30 mg/kg, intragastric, male rats; for Vd/F: read-out: Apparent distribution volume Vz/F; for AUC: read-out: Area under curve AUC; for CL/F: read-out: Clearance CLz/F; for half-life: read-out: Half-life T1/2 (converted); for Cmax: read-out: Plasma concentration Cmax; for MRT: read-out: Residence time MRT
Outline: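 Fasted male SD rats (3 per compound) received 30.0 mg/kg by gavage […] in 2.5% DMSO/97.5% of 10% solutol HS-15. Orbital blood was taken pre-dose and 0.5-24 h; plasma was acetonitrile-precipitated with camptothecin internal standard and quantified by LC/MS/MS.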

Kp at 0.5 h [1]	Vd/F [2]	AUC [2]	CL/F [2]	half-life [2]	Cmax [2]	MRT [2]	SMILES
0.199	5.29 ± 3.44 L/kg	8580 ± 3560 ng·h/mL	63.8 ± 26.5 mL/min/kg	54.6 ± 15 min	3930 ± 3030 ng/mL	2.46 ± 1.44 h	COCc1nnc(N2CC(c3cccc4cc(F)ccc34)C2)n1-c1ccc(OC)nc1 [Example 2, 5-(3-(3-(6-Fluoronaphthalen-1-yl)azetidin-1-yl)-5-(methoxymethyl)-4H-1,2,4-triazol-4-yl)-2-methoxypyridine]
0.295	13.7 ± 3.83 L/kg	11200 ± 4390 ng·h/mL	48 ± 19 mL/min/kg	201 ± 23.9 min	2020 ± 580 ng/mL	5.08 ± 0.552 h	COCc1nnc(N2CC(n3cc(C)c4cc(F)ccc43)C2)n1-c1ccc(OC)nc1 [Example 17, 5-Fluoro-1-(1-(5-(methoxymethyl)-4-(6-methoxypyridin-3-yl)-4H-1,2,4-triazol-3-yl)azetidin-3-yl)-3-methyl-1H-indole]
